# Columns and labels:
# Experiment in all cases: relative viability (nuclei count vs DMSO), 5 days (fraction); higher = more cells survive
# NCI-H322M = system: NCI-H322M
# Summary of the method: (§1)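 Medians of duplicate plates are given as relative viability. That measure is the nuclei count in treated wells divided by the count in vehicle wells. Counts were taken on 4× images of lung cancer cell lines in 1536-well plates, 5 days after pin-tool dosing the day after seeding with one drug alone or a fixed anchor-drug dose plus five library-drug doses (not always all listed) in √10 steps.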
# HCC-44 = system: HCC-44
# Summary of the method: as §1
# NCI-H1792 = system: NCI-H1792
# Summary of the method: as §1
# NCI-H2347 = system: NCI-H2347
# Summary of the method: as §1
# RERF-LC-KJ = system: RERF-LC-KJ
# Summary of the method: as §1
# NCI-H1944 = system: NCI-H1944
# Summary of the method: as §1
# SK-LU-1 = system: SK-LU-1
# Summary of the method: as §1
# NCI-H1755 = system: NCI-H1755
# Summary of the method: as §1
# NCI-H1793 = system: NCI-H1793
# Summary of the method: as §1
# ChaGo-K-1 = system: ChaGo-K-1
# Summary of the method: as §1
# NCI-H1666 = system: NCI-H1666
# Summary of the method: as §1
# NCI-H1395 = system: NCI-H1395
# Summary of the method: as §1
# NCI-H520 = system: NCI-H520
# Summary of the method: as §1
# CAL-12T = system: CAL-12T
# Summary of the method: as §1
# HCC-827 = system: HCC-827
# Summary of the method: as §1
# NCI-H3122 = system: NCI-H3122
# Summary of the method: as §1
# NCI-H358 = system: NCI-H358
# Summary of the method: as §1
# LU99A = system: LU99A
# Summary of the method: as §1
# NCI-H2126 = system: NCI-H2126
# Summary of the method: as §1
# LXF-289 = system: LXF-289
# Summary of the method: as §1
# LCLC-103H = system: LCLC-103H
# Summary of the method: as §1
smiles,measurement,setting,value
CCNC(=O)c1noc(-c2cc(C(C)C)c(O)cc2O)c1-c1ccc(CN2CCOCC2)cc1 [Luminespib] + CC(=O)Nc1cccc(-n2c(=O)n(C3CC3)c(=O)c3c(Nc4ccc(I)cc4F)n(C)c(=O)c(C)c32)c1 [Trametinib] (partner 0.02 µM),relative viability,NCI-H322M; first compound 0.002 µM,0.494
same,relative viability,NCI-H322M; first compound 0.006325 µM,0.535
same,relative viability,NCI-H322M; first compound 0.02 µM,0.453
same,relative viability,NCI-H322M; first compound 0.06325 µM,0.456
same,relative viability,NCI-H322M; first compound 0.2 µM,0.407
same,relative viability,HCC-44; first compound 0.002 µM,0.979
same,relative viability,HCC-44; first compound 0.006325 µM,1.19
same,relative viability,HCC-44; first compound 0.02 µM,1.24
same,relative viability,HCC-44; first compound 0.06325 µM,0.982
same,relative viability,HCC-44; first compound 0.2 µM,0.775
same,relative viability,NCI-H1792; first compound 0.002 µM,0.407
same,relative viability,NCI-H1792; first compound 0.006325 µM,0.391
same,relative viability,NCI-H1792; first compound 0.02 µM,0.317
same,relative viability,NCI-H1792; first compound 0.06325 µM,0.0621
same,relative viability,NCI-H1792; first compound 0.2 µM,0.0632
same,relative viability,NCI-H2347; first compound 0.002 µM,0.29
same,relative viability,NCI-H2347; first compound 0.006325 µM,0.307
same,relative viability,NCI-H2347; first compound 0.02 µM,0.269
same,relative viability,NCI-H2347; first compound 0.06325 µM,0.254
same,relative viability,NCI-H2347; first compound 0.2 µM,0.294
same,relative viability,RERF-LC-KJ; first compound 0.002 µM,0.867
same,relative viability,RERF-LC-KJ; first compound 0.006325 µM,0.903
same,relative viability,RERF-LC-KJ; first compound 0.02 µM,0.711
same,relative viability,RERF-LC-KJ; first compound 0.06325 µM,0.437
same,relative viability,RERF-LC-KJ; first compound 0.2 µM,0.21
same,relative viability,NCI-H1944; first compound 0.002 µM,0.467
same,relative viability,NCI-H1944; first compound 0.006325 µM,0.4
same,relative viability,NCI-H1944; first compound 0.02 µM,0.387
same,relative viability,NCI-H1944; first compound 0.06325 µM,0.405
same,relative viability,NCI-H1944; first compound 0.2 µM,0.354
same,relative viability,SK-LU-1; first compound 0.002 µM,0.478
same,relative viability,SK-LU-1; first compound 0.006325 µM,0.371
same,relative viability,SK-LU-1; first compound 0.02 µM,0.314
same,relative viability,SK-LU-1; first compound 0.06325 µM,0.178
same,relative viability,SK-LU-1; first compound 0.2 µM,0.185
same,relative viability,NCI-H1755; first compound 0.002 µM,0.783
same,relative viability,NCI-H1755; first compound 0.006325 µM,0.733
same,relative viability,NCI-H1755; first compound 0.02 µM,0.691
same,relative viability,NCI-H1755; first compound 0.06325 µM,0.765
same,relative viability,NCI-H1755; first compound 0.2 µM,0.701
same,relative viability,NCI-H1793; first compound 0.002 µM,0.428
same,relative viability,NCI-H1793; first compound 0.006325 µM,0.333
same,relative viability,NCI-H1793; first compound 0.02 µM,0.357
same,relative viability,NCI-H1793; first compound 0.06325 µM,0.187
same,relative viability,NCI-H1793; first compound 0.2 µM,0.186
same,relative viability,ChaGo-K-1; first compound 0.002 µM,0.831
same,relative viability,ChaGo-K-1; first compound 0.006325 µM,0.873
same,relative viability,ChaGo-K-1; first compound 0.02 µM,0.884
same,relative viability,ChaGo-K-1; first compound 0.06325 µM,0.861
same,relative viability,ChaGo-K-1; first compound 0.2 µM,0.892
same,relative viability,NCI-H1666; first compound 0.002 µM,0.845
same,relative viability,NCI-H1666; first compound 0.006325 µM,0.869
same,relative viability,NCI-H1666; first compound 0.02 µM,0.942
same,relative viability,NCI-H1666; first compound 0.06325 µM,0.818
same,relative viability,NCI-H1666; first compound 0.2 µM,0.982
same,relative viability,NCI-H1395; first compound 0.002 µM,0.994
same,relative viability,NCI-H1395; first compound 0.006325 µM,1.05
same,relative viability,NCI-H1395; first compound 0.02 µM,0.827
same,relative viability,NCI-H1395; first compound 0.06325 µM,0.35
same,relative viability,NCI-H1395; first compound 0.2 µM,0.379
same,relative viability,NCI-H520; first compound 0.002 µM,0.795
same,relative viability,NCI-H520; first compound 0.006325 µM,0.606
same,relative viability,NCI-H520; first compound 0.02 µM,0.371
same,relative viability,NCI-H520; first compound 0.06325 µM,0.114
same,relative viability,NCI-H520; first compound 0.2 µM,0.138
same,relative viability,CAL-12T; first compound 0.002 µM,0.321
same,relative viability,CAL-12T; first compound 0.006325 µM,0.356
same,relative viability,CAL-12T; first compound 0.02 µM,0.162
same,relative viability,CAL-12T; first compound 0.06325 µM,0.111
same,relative viability,CAL-12T; first compound 0.2 µM,0.117
same,relative viability,HCC-827; first compound 0.002 µM,0.533
same,relative viability,HCC-827; first compound 0.006325 µM,0.506
same,relative viability,HCC-827; first compound 0.02 µM,0.279
same,relative viability,HCC-827; first compound 0.06325 µM,0.154
same,relative viability,HCC-827; first compound 0.2 µM,0.15
same,relative viability,NCI-H3122; first compound 0.002 µM,0.179
same,relative viability,NCI-H3122; first compound 0.006325 µM,0.27
same,relative viability,NCI-H3122; first compound 0.02 µM,0.141
same,relative viability,NCI-H3122; first compound 0.06325 µM,0.242
same,relative viability,NCI-H3122; first compound 0.2 µM,0.186
same,relative viability,NCI-H358; first compound 0.002 µM,0.142
same,relative viability,NCI-H358; first compound 0.006325 µM,0.133
same,relative viability,NCI-H358; first compound 0.02 µM,0.0934
same,relative viability,NCI-H358; first compound 0.06325 µM,0.0702
same,relative viability,NCI-H358; first compound 0.2 µM,0.0715
same,relative viability,LU99A; first compound 0.002 µM,0.534
same,relative viability,LU99A; first compound 0.006325 µM,0.493
same,relative viability,LU99A; first compound 0.02 µM,0.378
same,relative viability,LU99A; first compound 0.06325 µM,0.482
same,relative viability,LU99A; first compound 0.2 µM,0.507
same,relative viability,NCI-H2126; first compound 0.002 µM,0.608
same,relative viability,NCI-H2126; first compound 0.006325 µM,0.608
same,relative viability,NCI-H2126; first compound 0.06325 µM,0.667
same,relative viability,NCI-H2126; first compound 0.2 µM,0.599
same,relative viability,LXF-289; first compound 0.002 µM,0.691
same,relative viability,LXF-289; first compound 0.006325 µM,0.649
same,relative viability,LXF-289; first compound 0.02 µM,0.669
same,relative viability,LXF-289; first compound 0.06325 µM,0.622
same,relative viability,LXF-289; first compound 0.2 µM,0.624
same,relative viability,LCLC-103H; first compound 0.002 µM,0.625
same,relative viability,LCLC-103H; first compound 0.006325 µM,0.657
same,relative viability,LCLC-103H; first compound 0.02 µM,0.699
same,relative viability,LCLC-103H; first compound 0.06325 µM,0.693
same,relative viability,LCLC-103H; first compound 0.2 µM,0.689

# Reference: the supplement of paper PMC10307832
